We go through eight compounds from patent publication US8426408B2, “Pyrimidine inhibitors of kinases” (AbbVie Inc., priority 2009, dated 2013).

The target of assay [1] is T1, Aurora A (Homo sapiens, UniProt O14965).
T1 sequence (O14965 1-403): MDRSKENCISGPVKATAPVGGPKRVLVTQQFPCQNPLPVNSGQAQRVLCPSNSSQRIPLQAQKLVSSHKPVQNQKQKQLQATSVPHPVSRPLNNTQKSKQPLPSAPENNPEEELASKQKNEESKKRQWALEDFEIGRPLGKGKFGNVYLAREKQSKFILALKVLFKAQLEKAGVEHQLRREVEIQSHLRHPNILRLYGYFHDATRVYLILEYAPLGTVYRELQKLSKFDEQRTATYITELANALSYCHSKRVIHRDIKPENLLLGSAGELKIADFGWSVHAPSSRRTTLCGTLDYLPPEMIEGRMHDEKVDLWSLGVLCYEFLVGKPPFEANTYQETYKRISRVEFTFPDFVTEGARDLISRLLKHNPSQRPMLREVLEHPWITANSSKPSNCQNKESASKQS
Briefly: Aurora A enzyme inhibition (time-resolved fluorescence, STK substrate-2). In kind it is biochemical. The following applies: 1 mM ATP. In short, it runs like this:
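Active enzyme incubated 1 h with biotinylated STK substrate-2, 1 mM ATP and inhibitor in Hepes pH 7.4 with MgCl2, orthovanadate and Triton X-100. EDTA stop; phosphopeptide detected by Eu-cryptate anti-phospho-STK/SA-XL665 TR-FRET (665/615 nm ratio); IC50 by exponential fit.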

The target in assay [2] is T2, KDR (Homo sapiens, UniProt P35968). Briefly: KDR HTRF in vitro kinase assay. In kind it is biochemical. Also noted: purified enzyme (His6-KDR 789-1354, MW 63 kD); His6 (N). Particulars: 1 mM ATP; read-out: KDR enzyme inhibition data (Ki). In a few lines: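 His6-KDR 789-1354 (7 ng/well) with 0.5 μM biotinylated peptide substrate and 1 mM ATP in HEPES pH 7.1, MgCl2/MnCl2, 60 min at room temperature. EDTA-quenched, detected by streptavidin-XL-665 plus Eu-kryptate anti-phosphotyrosine HTRF after 3 h; IC50 from 620/665 nm ratio.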
Target sequence in this assay (P35968 789-1354): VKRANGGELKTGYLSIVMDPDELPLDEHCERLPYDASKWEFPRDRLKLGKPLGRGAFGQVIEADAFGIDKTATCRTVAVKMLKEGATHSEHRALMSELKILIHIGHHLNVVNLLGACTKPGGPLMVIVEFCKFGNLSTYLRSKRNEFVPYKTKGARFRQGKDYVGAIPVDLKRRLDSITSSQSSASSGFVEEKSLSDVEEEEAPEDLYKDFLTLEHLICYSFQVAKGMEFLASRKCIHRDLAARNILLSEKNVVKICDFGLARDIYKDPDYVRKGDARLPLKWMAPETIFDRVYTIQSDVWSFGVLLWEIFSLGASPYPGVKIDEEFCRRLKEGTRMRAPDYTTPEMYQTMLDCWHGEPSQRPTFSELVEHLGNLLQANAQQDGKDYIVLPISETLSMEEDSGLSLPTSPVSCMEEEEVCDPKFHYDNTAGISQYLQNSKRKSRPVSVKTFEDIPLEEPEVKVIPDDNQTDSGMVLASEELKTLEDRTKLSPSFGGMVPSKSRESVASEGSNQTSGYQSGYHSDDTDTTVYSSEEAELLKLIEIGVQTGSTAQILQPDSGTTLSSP

For assay [3], the target named is T3, Aurora B (Homo sapiens, UniProt Q96GD4).
T3 construct: Active Aurora B enzyme (recombinant residues 1-344)
T3 sequence (Q96GD4 whole entry, the tested form may be a part): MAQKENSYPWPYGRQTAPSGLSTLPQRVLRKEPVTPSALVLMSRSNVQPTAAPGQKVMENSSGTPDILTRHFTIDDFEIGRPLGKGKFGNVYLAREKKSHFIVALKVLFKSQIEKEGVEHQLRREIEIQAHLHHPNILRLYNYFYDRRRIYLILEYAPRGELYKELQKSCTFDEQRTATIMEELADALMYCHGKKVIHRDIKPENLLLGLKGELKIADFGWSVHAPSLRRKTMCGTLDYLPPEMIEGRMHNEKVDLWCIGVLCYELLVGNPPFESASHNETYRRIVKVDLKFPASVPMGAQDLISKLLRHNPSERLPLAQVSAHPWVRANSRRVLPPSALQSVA
T3 sequence (Q9NQS7 826-918 partner limits assumed): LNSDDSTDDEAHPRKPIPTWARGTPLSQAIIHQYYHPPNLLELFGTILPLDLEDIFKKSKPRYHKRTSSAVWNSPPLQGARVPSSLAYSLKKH
Briefly: Aurora B enzyme inhibition (time-resolved fluorescence, histone H3 peptide). Format: biochemical. Particulars: 1 mM ATP. In a few lines:
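Recombinant Aurora B (residues 1-344) with GST-INCENP phosphorylated biotinylated histone H3 (1-21) peptide at 1 mM ATP in HEPES pH 7.4 with MgCl2, orthovanadate and Triton X-100 for 1 h. After EDTA stop, the phosphopeptide was detected by TR-FRET (Eu-cryptate anti-phospho-H3 / SA-APC, 665/615 nm ratio). IC50 from an exponential fit.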

For assay [4], the target named is T2, KDR. The assay is described as follows: KDR cellular assay (KDR receptor phosphorylation ELISA). Format: cell-based. Also noted: expressed in transfected cells; host or cells: 3T3 (embryonic mouse) cells. The following applies: KDR transfected 3T3 (embryonic mouse) cells, VEGF stimulated; read-out: IC50 inhibition of KDR phosphorylation. Here is the method: The ability of compounds to inhibit KDR receptor phosphorylation in cells was measured by ELISA following the protocol outlined below.
KDR transfected 3T3 (embryonic mouse) cells added to 96-well tissue culture plates at 20,000 cells/well.
Plates were covered and placed in a 37° C. humidified incubator with 5% CO2 overnight, to allow cells to adhere.
Coating solution was prepared: 500 l/vial PBS was added to 2 vials of anti-KDR antibody, then 1 ml solubilized anti-KDR antibody into 29.0 ml bicarbonate buffer. Coating solution was added to all wells at 150 µl/well (final amount anti-KDR=1 µg/well) and placed at 4° C. overnight.
Blocking solution (2.1 g dry milk+42 ml PBS=5% milk in PBS) was placed on a stir plate for 30 min.
Assay plates were washed twice with PBST, and 200 µl/well blocking solution was added to all wells. Assay plates were covered with plate sealers and placed in a 37° C. microplate chamber until just before cell lysate transfer.
Compound stocks were thawed or prepared in DMSO as 5 mM stocks.
Dilution medium (DM, 1% DMSO in DMEM) and compounds were diluted by half-log increments for concentration response analysis.
Conditioned media was dumped from the tissue culture plates, and plates were blotted dry.
Standard solution in DM, compound dilutions in DM, or DM (for high control, negative control, and reference wells) were added to the tissue culture plates, 25 µl/well. Each pair of tissue culture plates was prepared with the same compounds, solutions, and layout; and will be combined later; Tissue culture plates were covered and placed in the 37° C. microplate chamber for 20 min.
VEGF solution was prepared: 110 l VEGF stock+10.89 ml DM=100 ng/ml VEGF
VEGF solution or DM (for reference wells) was added to the tissue culture plates, 25 μl/well.
Tissue culture plates were covered and placed in the 37° C. microplate chamber for 10 min.
RIPA buffer was prepared (240 l NaVO3 stock+240 l PIC stock+24 l NaF stock+23.496 ml RIPA base) and added to the tissue culture plates, 50 µl/well.
Tissue culture plates were covered and placed on a Labline plate shaker for 10 min (speed about 5).
Assay plates were washed twice with PBST.
Cell lysates from matching wells of each pair of tissue culture plates were combined to =200 µl/well, and were pipetted up and down to mix. Cell lysates were transferred to the assay plates using the same layouts, 170 µl/well.
Assay plates were covered with plate sealers and placed on a Labline plate shaker for 2 hr (speed about 5).
Assay plates were washed 5 times with PBST.
Biotin antibody solution was prepared (16 l biotin antibody stock+32 ml PBST=2000× dilution) and added to the assay plates, 150 µl/well.
Assay plates were covered with plate sealers and placed on a Labline plate shaker for 90 min
Streptavidin-HRP solution was prepared (16 l streptavidin-HRP stock+32 ml PBST=2000× dilution) and added to the assay plates, 150 µl/well.
Assay plates were covered with plate sealers and placed on a Labline plate shaker for 60 min
Substrate was added to the assay plates, 100 µl/well.
As assay plates developed, the plates were each monitored on a Molecular Devices Spectramax set to 650 nm, until the signal in the high control wells was around 0.6 OD and the signal in the negative control wells was around 0.1-0.15 OD.
Stop solution was added to the assay plates, 100 µl/well.
The plates were read on a Molecular Devices Spectramax set to 450 nm.
Data was calculated by Assay Explorer, using same-plate high control wells as 0% and reference standard wells as 100% inhibition of KDR phosphorylation. IC50 values were calculated by non-linear regression analysis of the concentration response data.
Target sequence in this assay (P35968 20-1356): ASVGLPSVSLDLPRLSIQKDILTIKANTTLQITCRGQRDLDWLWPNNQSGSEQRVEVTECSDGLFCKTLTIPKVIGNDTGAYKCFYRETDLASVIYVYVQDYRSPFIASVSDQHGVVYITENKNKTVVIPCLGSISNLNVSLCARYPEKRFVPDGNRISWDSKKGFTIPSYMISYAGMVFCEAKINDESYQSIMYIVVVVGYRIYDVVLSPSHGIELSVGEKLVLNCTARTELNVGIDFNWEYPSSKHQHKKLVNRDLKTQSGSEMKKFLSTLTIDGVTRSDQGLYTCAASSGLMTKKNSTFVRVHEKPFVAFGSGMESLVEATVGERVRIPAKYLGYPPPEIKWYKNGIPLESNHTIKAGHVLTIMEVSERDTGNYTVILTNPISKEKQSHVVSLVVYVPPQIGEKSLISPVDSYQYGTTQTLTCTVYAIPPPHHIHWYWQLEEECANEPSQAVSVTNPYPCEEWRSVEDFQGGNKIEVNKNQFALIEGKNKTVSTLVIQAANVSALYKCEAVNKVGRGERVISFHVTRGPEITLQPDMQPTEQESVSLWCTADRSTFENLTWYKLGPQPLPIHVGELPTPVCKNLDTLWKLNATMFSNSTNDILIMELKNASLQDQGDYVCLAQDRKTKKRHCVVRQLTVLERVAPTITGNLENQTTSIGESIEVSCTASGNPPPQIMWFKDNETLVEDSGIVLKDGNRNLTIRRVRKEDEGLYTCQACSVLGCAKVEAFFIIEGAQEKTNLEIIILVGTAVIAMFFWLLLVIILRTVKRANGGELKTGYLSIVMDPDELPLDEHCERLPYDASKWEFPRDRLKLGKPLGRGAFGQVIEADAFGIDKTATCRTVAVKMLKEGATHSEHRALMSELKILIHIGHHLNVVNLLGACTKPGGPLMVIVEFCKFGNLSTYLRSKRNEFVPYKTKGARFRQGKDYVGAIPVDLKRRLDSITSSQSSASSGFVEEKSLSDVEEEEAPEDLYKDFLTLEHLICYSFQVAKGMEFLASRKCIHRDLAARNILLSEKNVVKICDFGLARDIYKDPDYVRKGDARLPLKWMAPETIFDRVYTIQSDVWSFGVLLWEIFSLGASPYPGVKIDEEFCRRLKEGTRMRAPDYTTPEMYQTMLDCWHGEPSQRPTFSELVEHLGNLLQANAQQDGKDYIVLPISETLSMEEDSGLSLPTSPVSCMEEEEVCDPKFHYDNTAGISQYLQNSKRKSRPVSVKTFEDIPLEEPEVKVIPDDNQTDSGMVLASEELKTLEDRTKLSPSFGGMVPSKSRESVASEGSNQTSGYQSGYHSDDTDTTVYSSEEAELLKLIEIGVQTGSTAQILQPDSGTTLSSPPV
(In general: An ELISA detects its analyte on a solid surface through an enzyme-linked reagent.)

For the compound `CC1(C)[C@H]2C[C@H](C(N)=O)[C@H](Nc3nc(Nc4cnn(-c5ccccc5)c4)ncc3Cl)[C@@H]1C2` [Example 189, (1R,2R,3S,5R)-2-({5-chloro-2-[(1-phenyl-1H-pyrazol-4-yl)amino]pyrimidin-4-yl}amino)-6,6-dimethylbicyclo[3.1.1]heptane-3-carboxamide], the Ki in assay [1], in assay [2] and in assay [3] was under 100 nM each time. Moreover, in assay [4], the IC50 (usually the concentration needed to halve the response being measured) is 100 to 1000 nM.

As to “(1S,2S,3R,4R)-3-[(5-bromo-2-{[1-(3-fluoro-4-methoxybenzyl)-1H-pyrazol-4-yl]amino}pyrimidin-4-yl)amino]bicyclo[2.2.1]hept-5-ene-2-carboxamide [Example 193]”, the Ki in assay [1], in assay [2] and in assay [3] was under 100 nM each time. Besides, in assay [4], the IC50 is under 100 nM.

Turning to `CCn1cc(Nc2ncc(C(N)=O)c(NC3C4C=CC(C4)C3C(N)=O)n2)cn1` (mixture of isomers) [Example 87, 4-{[(1S,2S,3R,4R)-3-carbamoylbicyclo[2.2.1]hept-5-ene-2-yl]amino}-2-[(1-ethyl-1H-pyrazol-4-yl)amino]pyrimidine-5-carboxamide and 4-{[(1R,2R,3S,4S)-3-carbamoylbicyclo[2.2.1]hept-5-ene-2-yl]amino}-2-[(1-ethyl-1H-pyrazol-4-yl)amino]pyrimidine-5-carboxamide], the Ki in assay [1], in assay [2] and in assay [3] was under 100 nM throughout. Also, the 50% inhibitory concentration (IC50) in assay [4] fell in the range of 100 to 1000 nM.

For the compound `OCCn1cc(Nc2ncc(Cl)c(Nc3ccc4[nH]ncc4c3)n2)cn1` [Example 180, 2-(4-{[5-chloro-4-(1H-indazol-5-ylamino)pyrimidin-2-yl]amino}-1H-pyrazol-1-yl)ethanol], the inhibitory constant (Ki) in assay [1], in assay [2] and in assay [3] was under 100 nM each time. Also, in assay [4], the half-maximal inhibitory concentration (IC50) lay within 100 to 1000 nM.

On to `CCn1cc(Nc2ncc(Cl)c(N[C@H]3[C@@H](C(N)=O)C[C@H]4C[C@@H]3C4(C)C)n2)cn1` [Example 166, (1R,2R,3S,5R)-2-({5-chloro-2-[(1-ethyl-1H-pyrazol-4-yl)amino]pyrimidin-4-yl}amino)-6,6-dimethylbicyclo[3.1.1]heptane-3-carboxamide], for which the Ki in assay [1], in assay [2] and in assay [3] was under 100 nM each time. Further, in assay [4], the IC50 lay in the range of 100 to 1000 nM.

Turning to “5-chloro-N^2-(1H-indazol-5-yl)-N^2-{1-[(3R)-pyrrolidin-3-yl]-1H-pyrazol-4-yl}pyrimidine-2,4-diamine [Example 181]”, the Ki in assay [1], in assay [2] and in assay [3] was under 100 nM in each case. Also, in assay [4], the IC50 is 100 to 1000 nM.

As to `CCn1cc(Nc2nc(C)c(Cl)c(N[C@@H]3[C@H](C(N)=O)[C@H]4C=C[C@@H]3C4)n2)cn1.CCn1cc(Nc2nc(C)c(Cl)c(N[C@H]3[C@@H](C(N)=O)[C@@H]4C=C[C@H]3C4)n2)cn1` (mixture of isomers) [Example 126, (1S,2S,3R,4R)-3-({5-chloro-2-[(1-ethyl-1H-pyrazol-4-yl)amino]-6-methylpyrimidin-4-yl}amino)bicyclo[2.2.1]hept-5-ene-2-carboxamide and (1R,2R,3S,4S)-3-({5-chloro-2-[(1-ethyl-1H-pyrazol-4-yl)amino]-6-methylpyrimidin-4-yl}amino)bicyclo[2.2.1]hept-5-ene-2-carboxamide], the Ki (commonly the equilibrium dissociation constant of an inhibitor or competing ligand from its target) in assay [1] was under 100 nM; in assay [2] it was 100 to 1000 nM; in assay [3], under 100 nM. Moreover, in assay [4], the IC50 fell in the range of 100 to 1000 nM.

Take `Cc1nn(C)c(C)c1Nc1ncc(Br)c(N[C@H]2[C@@H](C(N)=O)[C@@H]3C=C[C@H]2C3)n1` [Example 128, (1S,2S,3R,4R)-3-({5-bromo-2-[(1,3,5-trimethyl-1H-pyrazol-4-yl)amino]pyrimidin-4-yl}amino)bicyclo[2.2.1]hept-5-ene-2-carboxamide]: the Ki in assay [1], in assay [2] and in assay [3] was 100 to 1000 nM throughout. Also, the IC50 in assay [4] lay in the range of 100 to 1000 nM.
